# Target: Adenosylhomocysteinase (Oryctolagus cuniculus)
# Assay: Inhibitory effect against S-adenosyl-L-homocysteine hydrolase of rabbit erythrocyte.
row,SMILES,IC50
1,CC1=C[C@@H](n2cnc3c(N)ncnc32)[C@H](O)[C@@H]1O,> 40.4 µM
2,Nc1ncnc2c1ncn2[C@@H]1C=C(CCl)[C@@H](O)[C@H]1O,> 35.4 µM
3,COCC1=C[C@@H](n2cnc3c(N)ncnc32)[C@H](O)[C@@H]1O,> 36 µM
4,Nc1ncnc2c1ncn2[C@@H]1C=C(CF)[C@@H](O)[C@H]1O,> 37.7 µM
5,CSCC1=C[C@@H](n2cnc3c(N)ncnc32)[C@H](O)[C@@H]1O,> 34 µM
6,C=CC1=C[C@@H](n2cnc3c(N)ncnc32)[C@H](O)[C@@H]1O,> 38.5 µM

# From BindingDB's records for doi:10.1021/jm00080a018 (Toyo Jozo, 1992)
